# According to patent US7592326B2, “Method for stimulating the immune, inflammatory or neuroprotective response” (priority 2004, dated 2009):
# Experiments:
# anti-ClfA IgG antibody = test: Adjuvant effect in vaccination with S. aureus ClfA (serum ELISA); format: in vivo, CD-1 female mice
# Description: To evaluate the capacity of c-di-GMP to increase antibody production in the mouse (adaptive immune response), the cyclic dinucleotide was used as adjuvant for vaccination with S. aureus ClfA recombinant protein (a surface adhesion protein of S. aureus binding fibrinogen), as previously done for ClfA alone without adjuvant (Brouillette et al., 2002). Two groups of eight CD-1 female mice were vaccinated intramuscularly with 100 μl of saline containing 25 μg of ClfA. For one of the groups, the solution injected also contained 200 nmol of c-di-GMP. A volume of 50 ul was then injected into both quadriceps. This procedure was repeated two weeks after, for a second injection. Twelve days later, i.e. 26 days after the initial injections, blood samples were taken and incubated at 35° C. for an hour to allow coagulation, and then centrifuged at 13,000 g for 10 min at 4° C. Sera were harvested and kept at −20° C. until tested. The institutional ethics committee on animal experimentation of the Faculté des sciences of Université de Sherbrooke approved these experiments and were carried out following the guidelines of the Canadian Council on Animal Care.
# Enzyme-linked immunosorbant assays (ELISA) were used to determine the presence of IgG antibodies against the ClfA antigen in the mouse serum, as previously described (Brouillette et al., 2002). Polystyrene Maxisorp 96-well plates (Nalge-Nunc International) were coated for 2 h with 50 μl of recombinant ClfA (domaine A) protein at a concentration of 10 μg/ml in carbonate/bicarbonate buffer at pH 9.6. Following saturation of the wells with a solution of powdered milk in PBS (5% w/v), overnight at 4° C., four-fold dilutions of sera (1/1000 to 1/64000) were added and incubated for 2 h at 35° C. and then overnight at 4° C. Biotinylated anti-mouse IgG (1/1000) was added and incubated for 2 h at 35° C. After 1 h of incubation with streptavidin-HRP (Amersham Pharmacia Biotech) diluted 1/500, 100 μl of Sure Blue TMB Peroxidase Substrate (KPL) was added. The enzyme reaction was stopped by the addition of 50 μl of 1N HCl after 6 min of incubation. Between each step, three washes with PBS-Tween 0.05% were carried out. The optical density (OD) was read on a plate reader (Bio-Tek Instruments) at 450 nm.
# ELISA assays were carried out as for the total IgG assay but the secondary antibody was either mouse anti-IgG1-HRP or mouse anti-IgG2a-HRP (BD Pharmingen) and four-fold dilutions of sera form 1/250 to 1/16000 were assayed. Quantitation of mouse antibodies was achieved as for the total IgG assay but the development of coloration was allowed for 10 min. […] For the statistical analysis of ELISA results, the O.D. data for mice vaccinated with the c-di-GMP molecule as adjuvant were matched up to the corresponding data (isotype and dilution) where mice were injected with saline instead of c-di-GMP. One way analysis of variance (ANOVA) was used with the Bonferroni post-hoc test to account for multiple comparisons (Graphpad InStat software, version 3.06).
# [1] = tested on: cytokine mRNA in whole lung; test: Cytokine mRNA levels in whole lung homogenates (quantitative PCR); format: in vivo, Balb/c mice
# [2] = tested on: TLR1/2, TLR3, TLR4/MD2, TLR5, TLR2/6, TLR7, TLR8, and TLR9; test: HEK cells stably transfected with TLRs, IL-8 transcripts by QPCR; format: cell-based, human; details: 200 uM, 3 hours
# Description: To test this hypothesis, human embryonic kidney (HEK) cells, which are normally unresponsive to TLR ligand stimulation, were stably transfected with TLR1/2, TLR3, TLR4/MD2, TLR5, TLR2/6, TLR7, TLR8, and TLR9. HEK 293 cells were cultured in Dulbecco's modified Eagle's medium supplemented with 10% fetal bovine serum. Cells were plated in 24-well tissue culture plates (1×10^5 cells/well) and maintained in the above medium for 24 h. The following day, cells were either left untreated or incubated with the indicated amount of TLR ligand. After the 3 hour treatment period, cells were harvested for total RNA using the Qiagen RNeasy kit per the manufacturer's protocol. The total RNA was converted to cDNA and QPCR was performed to determine the number of copies of IL-8.
# human basophils = test: IL-3 dependent IL-13 secretion by human basophils; format: cell-based; details: under the conditions tested
# [3] = tested on: monocytes and granulocytes; test: Monocyte and granulocyte recruitment after intraperitoneal injection (FACS of peritoneal fluid); format: in vivo, C57BL/6 mice
# Description: C57BL/6 mice were injected with a volume of 500 ul containing 200 nmol c-di-GMP. […] Fluid was incubated in PBS BSA azide +24G2 (anti Fc) for 15 min at 4° C., washed in PBS, washed in PBS then stained and analyzed by FACs analysis (PBS BSA azide, 30 min 4° C.). Cells were stained with directly coupled fluorescent mAbs combinations in […] FACS buffer and further collected on a FACScalibur cytofluorometer (Becton Dickinson, BD). The following mAbs were purchased: fluorescein (FITC)-coupled M1/70 (anti-CD11b, BD Pharmingen), phycoerythrin (PE)-coupled 1A8 (anti-LY-6G, BD Pharmingen), 7/4 (Caltag), allophycocyanin (APC)-coupled F4/80 (Caltag). Cells were gated according to size and scatter to eliminate dead cells and debris from analysis.
# [4] = serum dilution of 1/1000, FIG. 7B
smiles,measurement,setting,value
"Nc1nc(=O)c2ncn([C@@H]3OC4COP(=O)(O)O[C@H]5[C@@H](O)[C@H](n6cnc7c(=O)nc(N)[nH]c76)O[C@@H]5COP(=O)(O)OC4C3O)c2[nH]1 (stereo partly shown) [c-di-GMP, Bis(3′→5′)-cyclic diguanylic acid]","ELISA optical density, IgG1 and IgG2a isotypes","anti-ClfA IgG antibody; serum dilution 1/16000, c-di-GMP treated group",around 0.5
same,"ELISA optical density, total IgG","anti-ClfA IgG antibody; serum dilution 1/64000, c-di-GMP treated group",around 0.5
same,increase of IgG1 (optical density ratio c-di-GMP/saline),anti-ClfA IgG antibody; [4],3.6 times
same,increase of IgG2a (optical density ratio c-di-GMP/saline),anti-ClfA IgG antibody; [4],208.9 times
same,increase of total IgG (optical density ratio c-di-GMP/saline),anti-ClfA IgG antibody; [4],7.7 times
same,anti-ClfA IgG antibody titers compared with ClfA alone,"anti-ClfA IgG antibody; two i.m. injections, 200 nmol c-di-GMP + 25 μg ClfA, serum day 26, P<0.001",significantly higher
same,IL-12 p40 levels vs control c-GMP,[1]; 24 and 48 hrs post bacterial challenge,increased
same,"MIP-2 mRNA, increase over infected control (c-GMP)","[1]; 24 hr post Klebsiella challenge, p<0.05, FIG. 17D",2 fold
same,IP-10 and IFN-gamma mRNA levels vs control c-GMP,"[1]; 24 hrs post K. pneumoniae, p<0.05",significantly higher
same,"type 1 cytokines IL-12 p40, IFN-gamma, and IP-10 in the lungs","[1]; i.n. pre-treatment, time 0 (pre-infection)",induction
same,induction of TNF-α in response to i.t. bacterial administration,"[1]; pretreatment, data not shown",did not significantly alter
same,stimulation of LPS-sensitive MD2/TLR4-HEK cell line,[2],failed to stimulate
same,activation of TLR expressing HEK cell lines (IL-8 transcripts),[2]; FIG. 14,none of the TLR expressing cell lines were activated
same,effect on IL-13 induced by IL-3,human basophils,essentially no inhibition
same,recruitment of F4/80^high LY-6G^med (monocytes) and F4/80^med LY-6G^high (granulocytes),"[3]; 200 nmol i.p., peritoneal lavage at 18 hours",induced the recruitment
same,macrophage and granulocyte recruitment in vivo relative to comparators,[3]; under the conditions tested,to a greater extent than CpG ODN and LPS
